Source: patent US8106055B2, “Substituted amide compounds” (Gruenenthal GmbH, priority 2007, dated 2012)

Experiments:
[1] = molecular target: T1, human bradykinin 1 receptor (B1R) (Homo sapiens, UniProt P46663); assay: Functional investigation on the human bradykinin 1 receptor (B1R), Ca2+ FLIPR assay in CHO K1 hB1R cells; format: cell-based; conditions: test substance 10 μM, Ca2+ FLIPR, CHO K1 hB1R cells; for inhibition at 10 µM: CHO-K1, B1R antagonism human, read-out: B1R Ant. h [10 μM] % Inhibition; for B1R Ant. h [10 μM] % Inhibition: B1R antagonism human
T1 construct: expressed in transfected cells; host or cells: CHO K1 cells
T1 sequence (P46663 1-353): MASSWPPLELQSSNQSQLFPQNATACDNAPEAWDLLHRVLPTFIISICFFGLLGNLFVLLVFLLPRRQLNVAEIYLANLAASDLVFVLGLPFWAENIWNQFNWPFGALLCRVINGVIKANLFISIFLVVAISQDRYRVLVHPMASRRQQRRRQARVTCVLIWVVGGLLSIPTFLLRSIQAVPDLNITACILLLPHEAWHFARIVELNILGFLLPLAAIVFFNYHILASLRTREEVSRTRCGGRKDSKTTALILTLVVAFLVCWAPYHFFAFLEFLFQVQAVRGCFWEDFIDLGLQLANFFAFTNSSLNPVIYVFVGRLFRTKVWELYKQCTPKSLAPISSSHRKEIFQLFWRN
How it was run: (§1)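 Peak Ca2+-dependent fluorescence in B1R-transfected CHO K1 cells measures antagonism of an EC80 agonist challenge given 10-20 min after compound. Agonist is Lys-Des-Arg9-bradykinin for human, Des-Arg9-bradykinin for rat receptor.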

[2] = molecular target: T2, bradykinin 1 receptor (B1R) of the rat (Rattus norvegicus, UniProt P97583); assay: Functional investigation on the rat bradykinin 1 receptor (B1R), Ca2+ FLIPR assay in CHO K1 rB1R cells; format: cell-based; conditions: test substance 10 μM, Ca2+ FLIPR, CHO K1 rB1R cells; for inhibition at 10 µM: CHO-K1, B1R antagonism rat, read-out: B1R Ant. r [10 μM] % Inhibition; for B1R Ant. r [10 μM] % Inhibition: B1R antagonism rat
T2 construct: expressed in transfected cells; host or cells: CHO K1 cells
T2 sequence (P97583 1-337): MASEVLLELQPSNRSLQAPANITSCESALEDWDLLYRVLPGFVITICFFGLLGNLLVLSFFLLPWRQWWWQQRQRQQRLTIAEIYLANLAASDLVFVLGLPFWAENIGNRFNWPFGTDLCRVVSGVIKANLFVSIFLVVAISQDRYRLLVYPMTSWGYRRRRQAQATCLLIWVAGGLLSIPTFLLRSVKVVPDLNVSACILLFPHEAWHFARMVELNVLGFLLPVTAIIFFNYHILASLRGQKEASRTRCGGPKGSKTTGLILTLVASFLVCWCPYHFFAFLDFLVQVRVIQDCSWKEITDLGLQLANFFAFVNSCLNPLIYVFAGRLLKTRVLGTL
How it was run: as §1

Structure (SMILES)	inhibition at 10 µM [1] [%]	inhibition at 10 µM [2] [%]	B1R Ant. h [10 μM] % Inhibition [1] [%]	B1R Ant. r [10 μM] % Inhibition [2] [%]
CN(C)C(c1cccs1)C1CCC(CCNC(=O)COCC2CCCN(S(=O)(=O)c3ccccc3)C2)CC1 (centres unmarked) [Example 115, N-(2-(4-((dimethylamino)(thiophen-2-yl)methyl)cyclohexyl)ethyl)-2-((1-(phenylsulfonyl)piperidin-3-yl)methoxy)acetamide]	10	21		
CN(C)C(c1cccs1)C1CCC(CCNC(=O)COCCN(Cc2ccccc2)S(=O)(=O)c2ccccc2)CC1 (centres unmarked) [Example 116, 2-(2-(N-benzylphenylsulfonamido)ethoxy)-N-(2-(4-((dimethylamino)(thiophen-2-yl)methyl)cyclohexyl)ethyl)acetamide]	28	14		
CCN(CCOCC(=O)NCC1CCC(C(c2cccc(F)c2)N(C)C)CC1)S(=O)(=O)c1c(C)cc(OC)c(C)c1C (centres unmarked) [Example 117, N-((4-((dimethylamino)(3-fluorophenyl)methyl)cyclohexyl)methyl)-2-(2-(N-ethyl-4-methoxy-2,3,6-trimethylphenylsulfonamido)ethoxy)acetamide]	76	77		
COc1cc(C)c(S(=O)(=O)N2CCC(CCOCC(=O)NC3CCC(C(c4cccc(F)c4)N(C)C)CC3)CC2)c(C)c1C (centres unmarked) [Example 118, N-(4-((dimethylamino)(3-fluorophenyl)methyl)cyclohexyl)-2-(2-(1-(4-methoxy-2,3,6-trimethylphenylsulfonyl)piperidin-4-yl)ethoxy)acetamide]	23	-4		
CN(C)C(c1cccc(F)c1)C1CCC(CNC(=O)COCC2CCCN2S(=O)(=O)c2ccc(Cl)c(Cl)c2)CC1 (centres unmarked) [Example 119, 2-((1-(3,4-dichlorophenylsulfonyl)pyrrolidin-2-yl)methoxy)-N-((4-((dimethylamino)(3-fluorophenyl)methyl)cyclohexyl)methyl)acetamide]	67	-6		
COc1ccc(S(=O)(=O)N2CCCCC2COCC(=O)NCCC2CCC(C(c3cccs3)N(C)C)CC2)cc1OC (centres unmarked) [Example 120, 2-((1-(3,4-dimethoxyphenylsulfonyl)piperidin-2-yl)methoxy)-N-(2-(4-((dimethylamino)(thiophen-2-yl)methyl)cyclohexyl)ethyl)acetamide]	-12	-14		
Cc1ccc(S(=O)(=O)N2CCC(OCC(=O)NCC3CCC(C(c4ccccc4)N(C)C)CC3)C2)cc1 (centres unmarked) [Example 125, N-((4-((dimethylamino)(phenyl)methyl)cyclohexyl)methyl)-2-(1-tosylpyrrolidin-3-yloxy)acetamide]	26	6		
CN(C)C(c1cccc(F)c1)C1CCC(CCNC(=O)COCCN(C)S(=O)(=O)c2ccc(Cl)cc2Cl)CC1 (centres unmarked) [Example 126, 2-(2-(2,4-dichloro-N-methylphenylsulfonamido)ethoxy)-N-(2-(4-((dimethylamino)(3-fluorophenyl)methyl)cyclohexyl)ethyl)acetamide]	103	59		
COc1ccc(S(=O)(=O)N(C)CCOCC(=O)NCC2CCC(C(c3cccs3)N(C)C)CC2)cc1OC (centres unmarked) [Example 127, 2-(2-(3,4-Dimethoxy-N-methylphenylsulfonamido)ethoxy)-N-((4-((dimethylamino)(thiophen-2-yl)methyl)cyclohexyl)methyl)acetamide]	-13	21		
COc1ccc(S(=O)(=O)N(C)CCOCC(=O)NCCC2CCC(C(c3cccs3)N(C)C)CC2)cc1 (centres unmarked) [Example 128, N-(2-(4-((dimethylamino)(thiophen-2-yl)methyl)cyclohexyl)ethyl)-2-(2-(4-methoxy-N-methylphenylsulfonamido)ethoxy)acetamide]	28	46		
COc1cc(C)c(S(=O)(=O)N2CCCC(OCC(=O)NCCC3CCC(C(c4cccs4)N(C)C)CC3)C2)c(C)c1C (centres unmarked) [Example 130, N-(2-(4-((dimethylamino)(thiophen-2-yl)methyl)cyclohexyl)ethyl)-2-(1-(4-methoxy-2,3,6-trimethylphenylsulfonyl)piperidin-3-yloxy)acetamide]	30	15		
COc1cc(C)c(S(=O)(=O)N2CCC(CCOCC(=O)NCC3CCC(C(c4cccs4)N(C)C)CC3)CC2)c(C)c1C (centres unmarked) [Example 131, N-((4-((dimethylamino)(thiophen-2-yl)methyl)cyclohexyl)methyl)-2-(2-(1-(4-methoxy-2,3,6-trimethylphenylsulfonyl)piperidin-4-yl)ethoxy)acetamide]	15	-20		
CN(C)C(c1cccc(F)c1)C1CCC(NC(=O)COC2CCCCC2N(C)S(=O)(=O)c2ccc(Cl)c(Cl)c2)CC1 (centres unmarked) [Example 132, 2-(2-(3,4-dichloro-N-methylphenylsulfonamido)cyclohexyloxy)-N-(4-((dimethylamino)(3-fluorophenyl)methyl)cyclohexyl)acetamide]	40	2		
COc1ccc(S(=O)(=O)N2CCCCC2COCC(=O)NCC2CCC(C(c3cccs3)N(C)C)CC2)cc1OC (centres unmarked) [Example 133, 2-((1-(3,4-Dimethoxyphenylsulfonyl)piperidin-2-yl)methoxy)-N-((4-((dimethylamino)(thiophen-2-yl)methyl)cyclohexyl)methyl)acetamide]	-23	7		
CN(C)C(c1ccccc1)C1CCC(NC(=O)COCCN(C)S(=O)(=O)c2c(Cl)cccc2Cl)CC1 (centres unmarked) [Example 135, 2-(2-(2,6-dichloro-N-methylphenylsulfonamido)ethoxy)-N-(4-((dimethylamino)(phenyl)methyl)cyclohexyl)acetamide]	79	29		
COc1ccc(S(=O)(=O)N2CCCCC2COCC(=O)NCC2CCC(C(CCc3ccccc3)N(C)C)CC2)c(OC)c1 (centres unmarked) [Example 420]			−7	2
CN(C)C(CCc1ccccc1)C1CCC(CNC(=O)COCCN(C)S(=O)(=O)c2c(Cl)cccc2Cl)CC1 (centres unmarked) [Example 476]			103	74
COc1ccc(S(=O)(=O)N2CCCCC2COCC(=O)NCC2CCC(C(CCc3ccccc3)N(C)C)CC2)c(OC)c1 (centres unmarked) [Example 486]			28	20
CN(C)C(c1cccc(F)c1)C1CCC(CCNC(=O)COCCC2CCN(S(=O)(=O)c3ccccc3)CC2)CC1 (centres unmarked) [Example 543]			−31	15
CN(C)C(CCc1ccccc1)C1CCC(CNC(=O)COCC2CCCN(S(=O)(=O)c3ccccc3)C2)CC1 (centres unmarked) [Example 544]			22	38
COc1cc(C)c(S(=O)(=O)N2CCC(OCC(=O)NCC3CCC(C(CCc4ccccc4)N(C)C)CC3)CC2)c(C)c1C (centres unmarked) [Example 546]			34	59
COc1cc(C)c(S(=O)(=O)N(CCOCC(=O)NCCC2CCC(C(c3ccc(F)cc3)N(C)C)CC2)Cc2ccccc2)c(C)c1 (centres unmarked) [Example 547]			76	30
COc1ccc(S(=O)(=O)N(C)CCOCC(=O)NC2CCC(C(c3ccc(F)cc3)N(C)C)CC2)cc1OC (centres unmarked) [Example 548]			6	11
COc1ccc(S(=O)(=O)N(C)CCOCC(=O)NC2CCC(C(c3ccc(F)cc3)N(C)C)CC2)cc1 (centres unmarked) [Example 549]			13	40
COc1ccc(S(=O)(=O)N(C)CCOCC(=O)NCC2CCC(C(CCc3ccccc3)N(C)C)CC2)cc1 (centres unmarked) [Example 550]			62	50
COc1cc(C)c(S(=O)(=O)N2CCCC(OCC(=O)NCC3CCC(C(CCc4ccccc4)N(C)C)CC3)C2)c(C)c1C (centres unmarked) [Example 551]			94	36
CN(C)C(CCc1ccccc1)C1CCC(CNC(=O)COC2CCN(S(=O)(=O)c3cccc(C(F)(F)F)c3)C2)CC1 (centres unmarked) [Example 552]			49	26
CN(C)C(c1ccc(F)cc1)C1CCC(CCNC(=O)COC2CCN(S(=O)(=O)c3ccccc3)CC2)CC1 (centres unmarked) [Example 553]			−21	−14
